{"source": "the NIST ThermoML archive (doi:10.1021/acs.jced.7b00584)", "key": {"[1]": {"settings": "Liquid, Ebulliometric method (Recirculating still)"}, "[2]": {"experiment": "Boiling temperature at pressure P", "settings": "101.3 kPa; Liquid; Ebulliometric method (Recirculating still)"}}, "note": "Numbers after ± are expanded uncertainties."}
{"smiles": "OCCCCO", "note": "[1,4-butanediol]", "values": [{"measurement": "vapor or sublimation pressure", "setting": "[1]; 479.1 K", "value": "50 ± 1", "unit": "kPa"}, {"measurement": "vapor or sublimation pressure", "setting": "[1]; 489.25 K", "value": "70 ± 1", "unit": "kPa"}, {"measurement": "Boiling temperature at pressure P", "setting": "[2]", "value": "228.00 ± 0.11", "unit": "°C"}]}
{"smiles": "C1CCOC1", "note": "[tetrahydrofuran]", "values": [{"measurement": "vapor or sublimation pressure", "setting": "[1]; 318.85 K", "value": "50 ± 1", "unit": "kPa"}, {"measurement": "vapor or sublimation pressure", "setting": "[1]; 328.15 K", "value": "70 ± 1", "unit": "kPa"}, {"measurement": "Boiling temperature at pressure P", "setting": "[2]", "value": "65.97 ± 0.11", "unit": "°C"}]}
{"smiles": "O=C1CCCO1", "note": "[γ-butyrolactone]", "values": [{"measurement": "vapor or sublimation pressure", "setting": "[1]; 450.25 K", "value": "50 ± 1", "unit": "kPa"}, {"measurement": "vapor or sublimation pressure", "setting": "[1]; 462.65 K", "value": "70 ± 1", "unit": "kPa"}, {"measurement": "Boiling temperature at pressure P", "setting": "[2]", "value": "204.00 ± 0.11", "unit": "°C"}]}
